Measurements: US20260008805A1, “ADENOSINE ANALOGS FOR THE TREATMENT OF DISEASE” (BIOINTERVENE, INC., priority 2022, published 2026)
Like-named read-outs stand apart in the source and are kept apart here.

Experiments:
[1] = biological target: T1, human A3 receptors (Homo sapiens, UniProt P0DMS8); test: Adenosine receptor binding assay ([3H]HEMADO competition); settings: Cheng-Prusoff, read-out: hA3 Ki
T1 construct: expressed in transfected cells; host or cells: HEK-293 cells, stably transfected; membrane preparation
T1 sequence (P0DMS8 1-318): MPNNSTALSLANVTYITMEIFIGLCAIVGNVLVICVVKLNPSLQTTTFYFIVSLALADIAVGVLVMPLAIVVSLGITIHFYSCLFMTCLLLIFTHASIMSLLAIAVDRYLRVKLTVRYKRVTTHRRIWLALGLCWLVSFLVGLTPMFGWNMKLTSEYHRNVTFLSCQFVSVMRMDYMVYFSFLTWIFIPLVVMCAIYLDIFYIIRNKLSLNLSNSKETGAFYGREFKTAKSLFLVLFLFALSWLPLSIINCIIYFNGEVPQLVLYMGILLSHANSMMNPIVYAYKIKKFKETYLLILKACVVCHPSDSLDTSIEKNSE
Source text: Materials and Reference Compounds: [^3H] HEMADO (obtained from (ARC, Cat: ART1456) and [3H] DPCPX (obtained from PerkinElmer Cat no. NET974250UC)). IB-MECA was obtained from Tocris (Bristol, UK) and N6-cyclopentyl adenosine (CPA) is obtained from Sigma-Alrich (Poole, UK). Cell culture media, G418 and hygromycin are obtained from Invitrogen (Paisley, UK). Fetal calf serum is obtained from Perbio Science (Cheshire, UK). All other reagents are obtained from Fisher Chemicals (Loughborough, UK).
The method followed is that of Yates L, Clark J H, Martin T J, James S, Broadley K J, Kidd E J. Radioligand binding and functional responses of ligands for human recombinant adenosine A3 receptors. Auton Autacoid Pharmacol. 2006; 26 (2): 191-200. Cells stably transfected with the human adenosine A3 or A1 receptor are grown in Dulbecco's modified Eagles medium with nutrient mixture F12 containing NaHCO3 and Glutamax. Media is supplemented with 10% fetal calf serum, geneticin (G418; 0.67 mg/mL), hygromycin (500 μg/mL) and adenosine deaminase (1 U/mL). Cells are maintained at 37° C. with 5% CO2 in air. Cells are harvested and homogenized in ice-cold Tris buffer [50 mM Tris, 150 mM NaCl, 1 mM ethylenediaminetetraacetic acid (EDTA), pH 7.4] supplemented with the peptidase inhibitors, 4-(2-aminoethyl)benzene sulfonylfluoride (1 mM) and bacitracin (0.1 mg/mL), using a Polytron homogenizer (3×10 s bursts). The homogenate is spun for 10 min (4° C.) at 500 g. The supernatant is retained and the pellet is re-suspended in the buffer, homogenized and spun as above. The combined supernatants are centrifuged for 15 min (4° C.) at 48,000 g. The resultant pellet is re-suspended in the buffer and centrifuged for a second time at 48,000 g. The membrane pellet is then suspended in Tris buffer containing no peptidase inhibitors or adenosine deaminase and stored at −80° C. at a protein concentration of 1 mg/mL.
Binding Assays: Radioligand-binding assays are performed using the adenosine A3 receptor agonist [^3H] HEMADO and the A1 receptor […] [^3H] DPCPX. Binding assays are conducted in a total volume of 100 μL containing a 50 mM Tris, pH 7.4 buffer with or without 10 mM MgCl2, 20 μg membranes and either 4.154 nM [3H] HEMADO (for the A3 receptor) or 1.6065 nM [^3H] DPCPX (for the A1 receptor). Assays are conducted at room temperature for 60 min (A1 receptor) or 120 min (A3 receptor) and terminated by the addition of 2 ml of ice-coldish buffer (50 mM Tris, pH 7.4 with or without 10 mM MgCl2) and rapid filtration over 0.03% polyethylenimine-treated Whatman GF/C filters using a Brandel cell harvester (Semat International Ltd., St Albans, UK). Filters are then ished three times with 2 ml of ice-cold buffer. The filter-bound radioactivity are counted using a Compugamma counter (LKB Wallac, Turku, Finland). Competition experiments are performed to investigate the ability of reference compounds and embodiments of the invention to inhibit [^3H] HEMADO binding. Non-specific binding are determined using the respective compound at its highest concentration.
Data Analysis: The Kd and Bmax values for binding data are calculated based upon the molar amounts of bound and free [^3H] HEMADO. […] IC50 and Ki values and Hill slopes for inhibition of the radioligand binding by the compounds of the invention are calculated from the ligand competition curves using the Excel spreadsheet and the Kd value calculated for either [^3H] HEMADO or [^3H] DPCPX. The results are expressed as a percent of control specific binding and as a percent inhibition of control specific binding obtained in the presence of the compounds of the invention. The IC50 values (concentration causing a half-maximal inhibition of control specific binding) and Hill coefficients (nH) are determined by non-linear regression analysis of the competition curves generated with mean replicate values using Hill equation curve fitting: […]

[2] = biological target: T2, human adenosine A3 receptor (Homo sapiens, UniProt P0DMS8); test: Intracellular cAMP levels (inhibition of forskolin-stimulated cAMP production); type: cell-based; settings: for EC50: CHO-K1 cells expressing human adenosine A3 receptor, forskolin 10 μM; for cAMP Efficacy (%): maximal response as percentage of the response produced by 100 nM IB-MECA
T2 construct: expressed in transfected cells; host or cells: CHO-K1 cells, stably transfected
T2 sequence (P0DMS8 1-318): T1 sequence (P0DMS8 1-318)
Source text: The method followed is that published in Yates L, Clark J H, Martin T J, James S, Broadley K J, Kidd E J. Radioligand binding and functional responses of ligands for human recombinant adenosine A3 receptors. Auton Autacoid Pharmacol. 2006 April; 26 (2): 191-200.
Materials and Cell Culture: Adenosine deaminase is obtained from Roche (Lewes, UK). Forskolin is obtained from Sigma-Aldrich (Poole, UK). The sources of other materials are provided above in Example 1. CHO-K1 cells stably transfected with the human adenosine A3 receptor are grown in Dulbecco's modified Eagles medium with nutrient mixture F12 containing NaHCO3 and Glutamax. Media is supplemented with 10% fetal calf serum, geneticin (G418; 0.67 mg/mL), hygromycin (500 μg/mL) and adenosine deaminase (1 U/mL). Cells are maintained at 37° C. with 5% CO2 in air.
CAMP Measurements: Intracellular cAMP production is measured directly using a non-acetylation cAMP enzyme immunoassay (Amersham Biosciences, Little Chalfont, UK). Cultured CHO cells expressing human adenosine A3 receptors are allowed to plate overnight in 96-well plates in culture medium containing adenosine deaminase. Twenty-four hours later, they are incubated with adenosine analogues or compounds of the invention (0.1 nM-1 μM) for 5 min at 37° C., followed by incubation with forskolin (10 μM) for 10 min. The cells are then lysed with 200 μL of lysis reagent 1 provided with the kit for 10 min to release intracellular CAMP. Aliquots of the supernatants are then transferred to a 96-well microtitre plate coated with donkey anti-rabbit IgG; 100-μL cAMP standards (12.5-3200 fmol/well) are also added to the microtitre plate; 100 μL of rabbit anti-cAMP antibody is added to all wells and incubated at 2-5° C. for 2 h. The antiserum is made up in lysis reagent 2, which sequesters the key component in lysis reagent 1 and ensures that CAMP is free for subsequent analysis. Then 50 μL of cAMP peroxidase conjugate is added to all wells and left to incubate for 60 min at 2-5° C. to allow competition for the antibody between the un-labelled and horse radish peroxidase (HRP)-labelled cAMP. Wells are then ished with buffer and 150 μL of enzyme substrate containing 3,3′,5,5′-tetramethylbenzidine/hydrogen peroxide in 20% (v/v) dimethylformamide is added to each well and left to incubate for 60 min on a Titramax 100 microtitre plate shaker (Heidolph Instruments, Schwabach, Germany) at room temperature for color development. The reaction is stopped by the addition of 100 μL of 1 M sulfuric acid and the optical density (OD) read at 450 nm on a spectrophotometric MRX microplate reader (Dynex Technologies, Chantilly, VA, USA).
Analyses: Each sample/standard was analyzed in duplicate and the resulting OD values averaged. The percent bound (B/B0) for each standard and sample was calculated using the following relationship:
[formula] • where B is the specific OD for standard/sample and B0 is the specific OD for the zero standard. A standard curve was generated by plotting % B/B0 as a function of the log fmol cAMP standard per well. The fmol per well value for cAMP in each sample was then read from the graph. The results are expressed as a percent of control agonist response: (measured response/control response)*100 in the presence of the compounds of the invention. Concentration-response curves for inhibition of cAMP production were constructed for all compounds of the invention and reference compounds. The EC50 values (concentration producing a half-maximal response) were determined by non-linear regression analysis of the concentration-response curves generated with mean replicate values using Hill equation curve fitting, according to the equation:
[formula] • where Y=response, A=left asymptote of the curve, D=right asymptote of the curve, C=compound concentration, and C50=EC50, and nH=slope factor. […]

[3] = Table 1, membranes of HEK-293 cells expressing human A3 receptor
[4] = Table 2, membranes of HEK-293 cells expressing human A3 receptor
[5] = Table 2, # = average between two data points

Row | SMILES | Ki [1, 3] | EC50 ([2]; Table 1) | cAMP Efficacy (%) ([2]; Table 1) | Ki [1, 4] | other results
1 | CC1CC(=O)c2c(Cl)nc3c(ncn3[C@@H]3[C@@H](O)[C@@H](O)[C@@]4(CO)C[C@@H]34)c2N1 (some centres unmarked) [13A*] |  |  |  | 24.1 nM | 
2 | O[C@H]1[C@H](n2cnc3c4[nH]c(Cc5ccccc5)cc4c(Cl)nc32)[C@H]2CC2[C@H]1O (some centres unmarked) [9A*] |  |  |  | 5.34 nM | EC50 [2, 5]: 2.15 nM; cAMP Efficacy (%) [2, 5]: 74.92%
3 | Cc1cc2c(C#CC3CC3)nc3c(ncn3[C@H]3[C@H](O)[C@H](O)C4C[C@@H]43)c2[nH]1 (some centres unmarked) [7A*] |  |  |  | 0.619 nM | EC50 [2, 5]: 0.91 nM; cAMP Efficacy (%) [2, 5]: 47.98%
4 | CC1CCc2c(Cl)nc3c(ncn3[C@H]3[C@H](O)[C@H](O)C4C[C@@H]43)c2N1 (some centres unmarked) [16A*] |  |  |  | 45.7 nM | EC50 [2, 5]: 5.36 nM; cAMP Efficacy (%) [2, 5]: 55.74%
5 | CNC(=O)[C@@]12C[C@@H]1[C@@H](n1cnc3c4c(c(Cl)nc31)C(O)CC(C)N4)[C@H](O)[C@@H]2O (some centres unmarked) [8A* and 8B*] |  |  |  | 5.84 nM | EC50 [2, 5]: 6 nM; cAMP Efficacy (%) [2, 5]: 107.96%
6 | CNC(=O)[C@H]1O[C@@H](n2cnc3c4[nH]c(C)cc4c(Cl)nc32)[C@H](O)[C@@H]1O [1A*] |  |  |  | 1.79 nM | 
7 | Cc1cc2c(Cl)nc3c(ncn3[C@@H]3O[C@H](CO)[C@@H](O)[C@H]3O)c2[nH]1 [6A*] |  |  |  | 1.33 nM | EC50 [2, 5]: 0.38 nM; cAMP Efficacy (%) [2, 5]: 102.76%
8 | CNC(=O)[C@@]12C[C@@H]1[C@@H](n1cnc3c4[nH]c(C)cc4c(Cl)nc31)[C@H](O)[C@@H]2O [2A*] |  |  |  | 0.543 nM | 
9 | CC1Cc2c(Cl)nc3c(ncn3[C@H]3[C@H](O)[C@H](O)[C@]4(CO)C[C@H]34)c2N1 (some centres unmarked) [3A*] |  |  |  | 65.7 nM | 
10 | CNC(=O)[C@@]12C[C@@H]1[C@@H](n1cnc3c4c(c(Cl)nc31)C(=O)CC(C)N4)[C@H](O)[C@@H]2O (some centres unmarked) [11A*] |  |  |  | 3.36 nM | 
11 | Cc1cc2c(C#N)nc3c(ncn3[C@H]3[C@H](O)[C@H](O)C4C[C@@H]43)c2[nH]1 (some centres unmarked) [4A*] |  |  |  | 1.09 nM | 

More lines, main results first:

Row | Ki [1, 3] | EC50 ([2]; Table 1) | cAMP Efficacy (%) ([2]; Table 1) | Ki [1, 4] | SMILES | other results
12 | 38.6 nM | 4.61 nM | 103.89% |  | O[C@H]1[C@H](n2cnc3c(NCc4cc(Cl)ccc4Cl)cc(Cl)nc32)[C@H]2C[C@@]2(c2ncc[nH]2)[C@H]1O [Compound 9B] | 
13 | 31.2 nM | 5.5 nM | 107.37% |  | CCNc1cc(Cl)nc2c1ncn2[C@H]1[C@H](O)[C@H](O)[C@]2(c3ncc[nH]3)C[C@H]12 [Compound 12B] | 
14 | 2.72 nM | 100 nM | 10% |  | Cn1nnc([C@@]23C[C@@H]2[C@@H](n2cnc4c5[nH]c(C=O)cc5c(Cl)nc42)[C@H](O)[C@@H]3O)n1 [Compound 4B] | 
15 |  |  |  | 1.8 nM | Cc1nc2c(Cl)nc3c(ncn3[C@H]3[C@H](O)[C@H](O)C4C[C@@H]43)c2[nH]1 (some centres unmarked) [22A*] | 
16 | 2.83 nM | 3 nM | 34.29% |  | Cn1nnc([C@@]23C[C@@H]2[C@@H](n2cnc4c5[nH]c(CO)cc5c(Cl)nc42)[C@H](O)[C@@H]3O)n1 [Compound 5B] | 
17 | 21.7 nM | 27.2 nM | 89.97% |  | O[C@H]1[C@H](n2cnc3c(NCC(F)F)cc(Cl)nc32)[C@H]2C[C@@]2(c2ncn[nH]2)[C@H]1O [Compound 14B] | 
18 | 6.36 nM | 0.14 nM | 105.39% |  | Cc1cc2c(Cl)nc3c(ncn3[C@H]3[C@H](O)[C@H](O)[C@]4(c5ncc[nH]5)C[C@H]34)c2[nH]1 [Compound 6B] | 
19 |  |  |  | 36 nM | CCOc1nc2c(ncn2[C@H]2[C@H](O)[C@H](O)C3C[C@@H]32)c2[nH]c(C)cc12 (some centres unmarked) [21A*] | 
20 | 1.24 nM | 0.17 nM | 104% |  | Cc1cc2c(Cl)nc3c(ncn3[C@H]3[C@H](O)[C@H](O)[C@]4(c5ncn(C)n5)C[C@H]34)c2[nH]1 [Compound 2B] | 
21 | > 806 nM |  |  |  | CCNc1cc(Cl)nc2c1ncn2[C@H]1[C@H](O)[C@H](O)[C@]2(c3nnnn3C)C[C@H]12 [Compound 11B] | 
22 | 151 nM |  |  |  | Cc1cc2c(Cl)nc3c(ncn3[C@H]3[C@H](O)[C@H](O)[C@]4(c5ncnn5C)C[C@H]34)c2[nH]1 [Compound 7B] | 
23 |  |  |  | 0.916 nM | O[C@H]1[C@H](n2cnc3c4[nH]c(C(F)F)cc4c(Cl)nc32)[C@H]2CC2[C@H]1O (some centres unmarked) [24A*] | 
